# Reference: ChEMBL document CHEMBL5058647, “Data for DCP probe JNJ-9350” (2022)
# Legend:
# [1] = target: T1, D(3) dopamine receptor (Homo sapiens, UniProt P35462); assay: GPCRScan assay: inhibition of D3; parameters: radioligand conc. used [nm] 0.5 – 1.8, parental cells HEKT
# [2] = target: D(4) dopamine receptor (Homo sapiens, UniProt P21917); assay: GPCRScan assay: inhibition of D4; parameters: radioligand conc. used [nm] 0.6 – 1.7, parental cells Stable HEK
# [3] = target: T2, Sodium-dependent dopamine transporter (Homo sapiens, UniProt Q01959); assay: GPCRScan assay: inhibition of DAT; parameters: radioligand conc. used [nm] 3.6 – 16.0, parental cells stable HEK
# [4] = target: T3, Kappa-type opioid receptor (Homo sapiens, UniProt P41145); assay: GPCRScan assay: inhibition of KOR; parameters: radioligand conc. used [nm] 0.6 – 1.2, parental cells stable HEK
# [5] = target: Alpha-1B adrenergic receptor (Homo sapiens, UniProt P35368); assay: GPCRScan assay: inhibition of Alpha1B; parameters: radioligand conc. used [nm] 0.3 – 1.0, parental cells stable HEK
# [6] = target: Muscarinic acetylcholine receptor M4 (Homo sapiens, UniProt P08173); assay: GPCRScan assay: inhibition of M4; parameters: radioligand conc. used [nm] 0.3 – 1.0, parental cells stable CHO
# [7] = GPCRScan assay: inhibition of GABA/PBR; parameters: species or system Rattus norvegicus; radioligand conc. used [nm] 0.3 – 2.0, parental cells brain tissue
# [8] = target: Spermine oxidase (Homo sapiens, UniProt Q9NWM0); assay: HyPerBlu SMOX enzymatic assay
# [9] = target: Peroxisomal N(1)-acetyl-spermine/spermidine oxidase (Homo sapiens, UniProt Q6QHF9); assay: HyPerBlu POAX enzymatic assay
# [10] = target: 5-hydroxytryptamine receptor 1A (Homo sapiens) (UniProt P08908); details: Compound concentration 10.0 uM
# [11] = target: 5-hydroxytryptamine receptor 1B (Homo sapiens, UniProt P28222); details: Compound concentration 10.0 uM
# [12] = target: 5-hydroxytryptamine receptor 1D (Homo sapiens, UniProt P28221); details: Compound concentration 10.0 uM
# [13] = target: 5-hydroxytryptamine receptor 1E (Homo sapiens) (UniProt P28566); details: Compound concentration 10.0 uM
# [14] = target: 5-hydroxytryptamine receptor 2A (Homo sapiens) (UniProt P28223); details: Compound concentration 10.0 uM
# [15] = target: 5-hydroxytryptamine receptor 2B (Homo sapiens, UniProt P41595); details: Compound concentration 10.0 uM
# [16] = target: 5-hydroxytryptamine receptor 2C (Homo sapiens) (UniProt P28335); details: Compound concentration 10.0 uM
# [17] = target: 5-hydroxytryptamine receptor 3A (Homo sapiens) (UniProt P46098); details: Compound concentration 10.0 uM
# [18] = target: 5-hydroxytryptamine receptor 5A (Homo sapiens) (UniProt P47898); details: Compound concentration 10.0 uM
# [19] = target: 5-hydroxytryptamine receptor 6 (Homo sapiens) (UniProt P50406); details: Compound concentration 10.0 uM
# [20] = target: 5-hydroxytryptamine receptor 7 (Homo sapiens) (UniProt P34969); details: Compound concentration 10.0 uM
# [21] = target: D(1A) dopamine receptor (Homo sapiens) (UniProt P21728); details: Compound concentration 10.0 uM
# [22] = target: D(2) dopamine receptor (Homo sapiens) (UniProt P14416); details: Compound concentration 10.0 uM
# [23] = target: T1, D(3) dopamine receptor; details: Compound concentration 10.0 uM
# [24] = target: D(4) dopamine receptor (Homo sapiens) (UniProt P21917); details: Compound concentration 10.0 uM
# [25] = target: D(1B) dopamine receptor (Homo sapiens) (UniProt P21918); details: Compound concentration 10.0 uM
# [26] = target: Sodium-dependent serotonin transporter (Homo sapiens) (UniProt P31645); details: Compound concentration 10.0 uM
# [27] = target: Sodium-dependent noradrenaline transporter (Homo sapiens) (UniProt P23975); details: Compound concentration 10.0 uM
# [28] = target: T2, Sodium-dependent dopamine transporter; details: Compound concentration 10.0 uM
# [29] = target: Mu-type opioid receptor (Homo sapiens) (UniProt P35372); details: Compound concentration 10.0 uM
# [30] = target: Delta-type opioid receptor (Homo sapiens) (UniProt P41143); details: Compound concentration 10.0 uM
# [31] = target: T3, Kappa-type opioid receptor; details: Compound concentration 10.0 uM
# [32] = target: Histamine H1 receptor (Homo sapiens) (UniProt P35367); details: Compound concentration 10.0 uM
# [33] = target: Histamine H2 receptor (Homo sapiens) (UniProt P25021); details: Compound concentration 10.0 uM
# [34] = target: Histamine H3 receptor (Homo sapiens) (UniProt Q9Y5N1); details: Compound concentration 10.0 uM
# [35] = target: Histamine H4 receptor (Homo sapiens) (UniProt Q9H3N8); details: Compound concentration 10.0 uM
# [36] = target: Alpha-1A adrenergic receptor (Homo sapiens) (UniProt P35348); details: Compound concentration 10.0 uM
# [37] = target: Alpha-1B adrenergic receptor (Homo sapiens) (UniProt P35368); details: Compound concentration 10.0 uM
# [38] = target: Alpha-2A adrenergic receptor (Homo sapiens) (UniProt P08913); details: Compound concentration 10.0 uM
# [39] = target: Alpha-2B adrenergic receptor (Homo sapiens) (UniProt P18089); details: Compound concentration 10.0 uM
# [40] = target: Alpha-2C adrenergic receptor (Homo sapiens) (UniProt P18825); details: Compound concentration 10.0 uM
# [41] = target: Beta-1 adrenergic receptor (Homo sapiens) (UniProt P08588); details: Compound concentration 10.0 uM
# [42] = target: Beta-2 adrenergic receptor (Homo sapiens) (UniProt P07550); details: Compound concentration 10.0 uM
# [43] = target: Muscarinic acetylcholine receptor M1 (Homo sapiens) (UniProt P11229); details: Compound concentration 10.0 uM
# [44] = target: Muscarinic acetylcholine receptor M2 (Homo sapiens) (UniProt P08172); details: Compound concentration 10.0 uM
# [45] = target: Muscarinic acetylcholine receptor M3 (Homo sapiens) (UniProt P20309); details: Compound concentration 10.0 uM
# [46] = target: T4, Muscarinic acetylcholine receptor M4 (Homo sapiens) (UniProt P08173); details: Compound concentration 10.0 uM
# T4 sequence (whole entry): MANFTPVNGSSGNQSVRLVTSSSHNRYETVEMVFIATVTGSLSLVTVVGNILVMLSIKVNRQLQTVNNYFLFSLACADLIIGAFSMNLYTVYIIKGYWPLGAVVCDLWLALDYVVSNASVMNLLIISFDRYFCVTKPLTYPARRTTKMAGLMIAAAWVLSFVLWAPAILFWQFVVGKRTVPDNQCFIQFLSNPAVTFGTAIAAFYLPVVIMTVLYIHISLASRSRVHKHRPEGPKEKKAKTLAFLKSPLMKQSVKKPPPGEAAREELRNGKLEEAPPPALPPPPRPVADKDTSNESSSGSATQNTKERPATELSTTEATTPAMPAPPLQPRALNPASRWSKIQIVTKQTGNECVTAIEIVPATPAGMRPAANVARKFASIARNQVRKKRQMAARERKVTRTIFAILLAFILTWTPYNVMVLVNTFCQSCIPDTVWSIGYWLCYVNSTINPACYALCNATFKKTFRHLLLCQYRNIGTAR
# [47] = target: Muscarinic acetylcholine receptor M5 (Homo sapiens) (UniProt P08912); details: Compound concentration 10.0 uM
# [48] = target: Beta-3 adrenergic receptor (Homo sapiens) (UniProt P13945); details: Compound concentration 10.0 uM
# [49] = target: GABA-A receptor; anion channel (Rattus norvegicus) (UniProt O09028+P15431+P18506+P18508+P19969+P20236+P23574+P23576+P28471+P28473+P30191+P62813+P63079+P63138+Q91ZM7+Q9ES14); details: Compound concentration 10.0 uM
# [50] = organism: Rattus norvegicus; details: Compound concentration 10.0 uM
# [51] = target: Alpha-1D adrenergic receptor (Homo sapiens) (UniProt P25100); details: Compound concentration 10.0 uM
# [52] = target: Sigma intracellular receptor 2 (Homo sapiens, UniProt Q5BJF2); details: Compound concentration 10.0 uM
# [53] = target: Sigma non-opioid intracellular receptor 1 (Homo sapiens) (UniProt Q99720); details: Compound concentration 10.0 uM
# Chain of Sigma non-opioid intracellular receptor 1 (Homo sapiens) (Q99720 whole entry): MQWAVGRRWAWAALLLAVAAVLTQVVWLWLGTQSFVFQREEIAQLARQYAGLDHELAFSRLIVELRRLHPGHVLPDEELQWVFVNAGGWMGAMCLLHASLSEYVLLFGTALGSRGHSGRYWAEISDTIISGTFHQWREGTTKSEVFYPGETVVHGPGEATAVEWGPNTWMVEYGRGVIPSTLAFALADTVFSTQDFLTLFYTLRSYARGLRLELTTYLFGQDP
# T2 sequence (Q01959 whole entry): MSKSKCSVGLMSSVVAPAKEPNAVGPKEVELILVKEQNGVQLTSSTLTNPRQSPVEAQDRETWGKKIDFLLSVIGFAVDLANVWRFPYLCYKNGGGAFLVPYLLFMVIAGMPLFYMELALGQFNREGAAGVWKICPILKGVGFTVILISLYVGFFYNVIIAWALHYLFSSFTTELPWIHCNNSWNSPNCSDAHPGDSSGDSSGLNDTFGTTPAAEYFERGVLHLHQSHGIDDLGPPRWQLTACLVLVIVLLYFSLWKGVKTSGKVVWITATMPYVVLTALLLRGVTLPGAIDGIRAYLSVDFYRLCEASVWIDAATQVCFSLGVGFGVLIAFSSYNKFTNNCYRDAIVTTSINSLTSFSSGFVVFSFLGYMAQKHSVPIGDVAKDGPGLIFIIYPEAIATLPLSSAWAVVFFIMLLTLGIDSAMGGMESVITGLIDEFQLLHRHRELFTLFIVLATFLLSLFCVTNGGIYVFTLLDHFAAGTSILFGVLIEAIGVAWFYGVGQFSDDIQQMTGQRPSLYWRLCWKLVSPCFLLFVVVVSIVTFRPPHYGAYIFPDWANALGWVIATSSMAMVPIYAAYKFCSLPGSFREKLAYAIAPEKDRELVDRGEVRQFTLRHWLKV
# T3 sequence (P41145 whole entry): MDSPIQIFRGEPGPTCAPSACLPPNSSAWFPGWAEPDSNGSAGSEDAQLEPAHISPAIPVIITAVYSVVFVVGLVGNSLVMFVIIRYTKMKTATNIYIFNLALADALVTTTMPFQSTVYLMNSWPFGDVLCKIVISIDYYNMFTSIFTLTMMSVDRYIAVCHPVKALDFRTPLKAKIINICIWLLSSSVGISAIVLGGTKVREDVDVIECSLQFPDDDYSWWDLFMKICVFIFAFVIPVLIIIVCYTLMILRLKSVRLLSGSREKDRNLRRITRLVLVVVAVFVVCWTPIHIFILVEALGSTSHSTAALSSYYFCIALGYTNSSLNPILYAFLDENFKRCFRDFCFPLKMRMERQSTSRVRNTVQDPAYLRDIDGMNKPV
# T1 sequence (P35462 whole entry): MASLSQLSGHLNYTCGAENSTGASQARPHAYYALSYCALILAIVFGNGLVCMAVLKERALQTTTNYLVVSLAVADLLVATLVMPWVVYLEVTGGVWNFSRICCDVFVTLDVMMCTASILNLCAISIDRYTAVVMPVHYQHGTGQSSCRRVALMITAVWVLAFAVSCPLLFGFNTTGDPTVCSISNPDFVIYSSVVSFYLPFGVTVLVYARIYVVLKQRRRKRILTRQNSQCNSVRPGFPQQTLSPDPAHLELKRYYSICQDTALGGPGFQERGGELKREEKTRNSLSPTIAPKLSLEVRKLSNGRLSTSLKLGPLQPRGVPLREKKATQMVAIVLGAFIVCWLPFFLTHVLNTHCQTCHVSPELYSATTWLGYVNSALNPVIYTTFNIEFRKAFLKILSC
# Chain of Histamine H4 receptor (Homo sapiens) (Q9H3N8 whole entry): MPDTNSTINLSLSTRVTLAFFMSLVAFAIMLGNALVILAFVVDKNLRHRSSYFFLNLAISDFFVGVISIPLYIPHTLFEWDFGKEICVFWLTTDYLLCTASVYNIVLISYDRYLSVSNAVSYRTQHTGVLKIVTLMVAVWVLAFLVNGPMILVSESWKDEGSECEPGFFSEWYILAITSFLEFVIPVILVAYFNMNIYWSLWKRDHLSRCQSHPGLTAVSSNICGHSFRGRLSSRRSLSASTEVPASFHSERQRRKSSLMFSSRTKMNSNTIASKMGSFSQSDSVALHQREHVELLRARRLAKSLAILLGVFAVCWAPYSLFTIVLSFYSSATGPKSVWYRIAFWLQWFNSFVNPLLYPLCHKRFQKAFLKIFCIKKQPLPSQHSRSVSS
# Chain of Histamine H2 receptor (Homo sapiens) (P25021 whole entry): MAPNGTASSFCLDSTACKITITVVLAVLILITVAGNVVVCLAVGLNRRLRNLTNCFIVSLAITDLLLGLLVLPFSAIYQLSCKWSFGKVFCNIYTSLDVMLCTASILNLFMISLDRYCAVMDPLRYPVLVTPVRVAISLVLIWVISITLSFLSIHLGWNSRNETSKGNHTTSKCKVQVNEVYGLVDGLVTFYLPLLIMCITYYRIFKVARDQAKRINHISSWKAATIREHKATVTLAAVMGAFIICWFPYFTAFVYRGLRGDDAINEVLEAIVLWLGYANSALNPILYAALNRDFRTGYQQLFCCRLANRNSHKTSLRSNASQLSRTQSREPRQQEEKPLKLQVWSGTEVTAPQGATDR
# Chain of Alpha-2C adrenergic receptor (Homo sapiens) (P18825 whole entry): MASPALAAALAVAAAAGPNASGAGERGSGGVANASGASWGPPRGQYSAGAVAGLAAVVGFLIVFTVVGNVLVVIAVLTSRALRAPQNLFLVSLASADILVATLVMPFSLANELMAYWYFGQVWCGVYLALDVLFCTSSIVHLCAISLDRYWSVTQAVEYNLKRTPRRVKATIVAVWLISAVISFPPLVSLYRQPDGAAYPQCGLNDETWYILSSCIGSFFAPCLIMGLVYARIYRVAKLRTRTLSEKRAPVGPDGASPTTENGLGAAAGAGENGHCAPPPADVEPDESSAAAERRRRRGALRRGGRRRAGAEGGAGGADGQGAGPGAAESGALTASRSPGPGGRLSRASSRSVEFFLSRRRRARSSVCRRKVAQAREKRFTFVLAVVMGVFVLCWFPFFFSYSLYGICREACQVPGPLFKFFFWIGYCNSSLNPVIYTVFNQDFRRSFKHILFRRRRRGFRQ
# Chain of 5-hydroxytryptamine receptor 2B (P41595 whole entry): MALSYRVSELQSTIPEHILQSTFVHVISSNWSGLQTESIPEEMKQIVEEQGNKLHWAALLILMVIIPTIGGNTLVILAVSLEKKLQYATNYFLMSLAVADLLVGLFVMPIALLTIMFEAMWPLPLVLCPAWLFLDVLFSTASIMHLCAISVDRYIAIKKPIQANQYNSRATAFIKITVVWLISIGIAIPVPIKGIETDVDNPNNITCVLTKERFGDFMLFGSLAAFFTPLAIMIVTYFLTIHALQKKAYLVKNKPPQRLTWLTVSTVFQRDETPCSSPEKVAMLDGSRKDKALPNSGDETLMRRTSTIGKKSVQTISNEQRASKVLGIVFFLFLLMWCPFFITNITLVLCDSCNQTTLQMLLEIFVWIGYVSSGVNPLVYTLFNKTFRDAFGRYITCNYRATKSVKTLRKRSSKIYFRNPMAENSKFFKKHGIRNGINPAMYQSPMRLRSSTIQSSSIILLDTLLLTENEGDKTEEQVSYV
# Chain of Muscarinic acetylcholine receptor M2 (Homo sapiens) (P08172 whole entry): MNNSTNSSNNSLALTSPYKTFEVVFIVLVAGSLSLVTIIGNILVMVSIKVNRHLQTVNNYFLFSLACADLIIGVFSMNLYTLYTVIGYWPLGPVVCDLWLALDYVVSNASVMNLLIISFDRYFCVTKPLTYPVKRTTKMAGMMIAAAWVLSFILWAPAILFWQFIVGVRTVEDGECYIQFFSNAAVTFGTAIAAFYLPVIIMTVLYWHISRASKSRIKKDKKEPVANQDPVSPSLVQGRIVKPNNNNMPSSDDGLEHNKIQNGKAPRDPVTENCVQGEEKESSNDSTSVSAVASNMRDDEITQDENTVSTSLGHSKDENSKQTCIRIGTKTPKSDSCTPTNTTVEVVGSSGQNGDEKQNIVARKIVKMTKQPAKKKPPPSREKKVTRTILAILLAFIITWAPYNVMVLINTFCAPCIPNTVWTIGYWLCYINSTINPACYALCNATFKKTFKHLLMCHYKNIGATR
# Chain of Spermine oxidase (Q9NWM0 whole entry): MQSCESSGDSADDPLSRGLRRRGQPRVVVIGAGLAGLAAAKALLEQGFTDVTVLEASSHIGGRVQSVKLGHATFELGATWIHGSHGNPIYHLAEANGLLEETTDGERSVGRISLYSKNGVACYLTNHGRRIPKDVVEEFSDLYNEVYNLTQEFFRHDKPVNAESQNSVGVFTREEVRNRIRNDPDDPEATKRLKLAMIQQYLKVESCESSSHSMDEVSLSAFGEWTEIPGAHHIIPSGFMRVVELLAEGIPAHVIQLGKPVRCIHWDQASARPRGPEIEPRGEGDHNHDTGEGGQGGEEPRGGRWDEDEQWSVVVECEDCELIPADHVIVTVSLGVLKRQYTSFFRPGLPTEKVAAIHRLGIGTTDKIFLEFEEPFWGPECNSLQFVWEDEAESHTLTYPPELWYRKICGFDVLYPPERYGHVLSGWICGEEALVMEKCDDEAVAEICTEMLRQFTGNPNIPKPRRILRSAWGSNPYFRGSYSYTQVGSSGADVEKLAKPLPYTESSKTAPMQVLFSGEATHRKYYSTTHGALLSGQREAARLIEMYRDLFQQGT
# Chain of Histamine H1 receptor (Homo sapiens) (P35367 whole entry): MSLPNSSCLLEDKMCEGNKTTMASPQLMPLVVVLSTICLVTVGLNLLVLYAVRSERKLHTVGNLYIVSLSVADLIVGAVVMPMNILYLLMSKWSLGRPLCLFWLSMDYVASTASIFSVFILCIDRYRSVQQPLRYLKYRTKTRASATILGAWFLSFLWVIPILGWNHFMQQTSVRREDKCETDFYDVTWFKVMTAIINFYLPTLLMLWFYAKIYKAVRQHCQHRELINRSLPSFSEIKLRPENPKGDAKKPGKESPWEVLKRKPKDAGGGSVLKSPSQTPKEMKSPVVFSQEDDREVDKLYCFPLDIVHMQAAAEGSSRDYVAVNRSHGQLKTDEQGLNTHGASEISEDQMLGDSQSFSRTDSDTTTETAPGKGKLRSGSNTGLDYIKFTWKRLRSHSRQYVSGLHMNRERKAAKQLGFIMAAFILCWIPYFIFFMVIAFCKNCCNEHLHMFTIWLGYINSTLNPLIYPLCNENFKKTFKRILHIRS
smiles,measurement,setting,value
CC(=O)Nc1ccc(-c2cc(-c3ccccc3)nc3cc(C(=O)NCCCn4ccnc4)nn23)cc1,Ki,[1],3.6 µM
same,Ki,[2],3.39 µM
same,Ki,[3]; read-out: Ki,6.55 µM
same,Ki,[3]; read-out: pKi (converted),6.61 µM
same,Ki,[4],0.198 µM
same,Ki,[5],9.78 µM
same,Ki,[6],1.31 µM
same,Ki,[7],0.306 µM
same,pKi,[7],6.51
same,IC50,[8],> 31 µM (not active)
same,IC50,[9],2.1 µM (not active)
same,inhibition,[10],16.5%
same,inhibition,[11],38.4%
same,inhibition,[12],48.5%
same,inhibition,[13],15.1%
same,inhibition,[14],17.8%
same,inhibition,[15],17.5%
same,inhibition,[16],7.86%
same,inhibition,[17],16.2%
same,inhibition,[18],6.76%
same,inhibition,[19],-8.97%
same,inhibition,[20],0.12%
same,inhibition,[21],22.7%
same,inhibition,[22],32.2%
same,inhibition,[23],90%
same,inhibition,[24],89.3%
same,inhibition,[25],15%
same,inhibition,[26],12.9%
same,inhibition,[27],49.4%
same,inhibition,[28],79.9%
same,inhibition,[29],25.4%
same,inhibition,[30],49.3%
same,inhibition,[31],90.7%
same,inhibition,[32],14.9%
same,inhibition,[33],10.8%
same,inhibition,[34],6.04%
same,inhibition,[35],27.9%
same,inhibition,[36],-7.41%
same,inhibition,[37],75.3%
same,inhibition,[38],28.1%
same,inhibition,[39],10.8%
same,inhibition,[40],-1.48%
same,inhibition,[41],4.27%
same,inhibition,[42],-7.96%
same,inhibition,[43],18.5%
same,inhibition,[44],46.1%
same,inhibition,[45],33.5%
same,inhibition,[46],51.6%
same,inhibition,[47],30.3%
same,inhibition,[48],-5.81%
same,inhibition,[49],25.9%
same,inhibition,[50],96.6%
same,inhibition,[51],39.3%
same,inhibition,[52],25.4%
same,inhibition,[53],21.2%
